Like-named read-outs stand apart in the source and are kept apart here.
Columns and labels:
L1210 = assay: cells; format: cell-based, mouse; details: Mus musculus
HCT116 = assay: cells; format: cell-based, human; details: Homo sapiens
HCT116/VM46 = assay: cells; format: cell-based, human; details: for IC50: Homo sapiens
[1] = system: L1210, HCT116, HCT116/VM46; assay: cytotoxic activity in the cell-based assays, overall comparison with the parent compound; details: for enhancement of cytotoxic activity by C-10′ fluorine substitution: vs natural product without fluorine; for fold more potent than the natural products themselves: vs vinblastine / vincristine, Table 2C
[2] = L1210, Table 2B, C10′-substituted vinblastines, single evaluations, read-out: IC50 (nM) L1210
[3] = HCT-116, Table 2B, C10′-substituted vinblastines, single evaluations, read-out: IC50 (nM) HCT116
[4] = HCT-116/VM46, Table 2B, C10′-substituted vinblastines, single evaluations, read-out: IC50 (nM) HCT116/VM46

Row | Structure (SMILES) | IC50 (L1210; [2]) | IC50 (HCT116; [3]) | IC50 (HCT116/VM46; [4]) | increased activity against vinblastine resistant cell line (HCT116/VM46) (HCT116/VM46; vs vinblastine) | enhancement of cytotoxic activity by C-10′ fluorine substitution [1] | fold more potent than the natural products themselves [1] | IC50 (L1210; L1210, read-out: IC50 (nM) L1210) | IC50 (HCT116; HCT-116, read-out: IC50 (nM) HCT116) | IC50 (HCT116/VM46; HCT-116/VM46, read-out: IC50 (nM) HCT116/VM46) | IC50 (L1210; L1210, Table 2C, side-by-side, multiple examinations with several independent samples, read-out: IC50 (nM) L1210) | IC50 (HCT116; HCT-116, Table 2C, side-by-side, multiple examinations with several independent samples, read-out: IC50 (nM) HCT116) | IC50 (HCT116/VM46; HCT-116/VM46, Table 2C, side-by-side, multiple examinations with several independent samples, read-out: IC50 (nM) HCT116/VM46)
1 | CC[C@]1(O)C[C@@H]2CN(CCc3c([nH]c4ccc(F)cc34)[C@@](C(=O)OC)(c3cc4c(cc3OC)N(C)C3C(O)(C(=O)OC)[C@H](OC(C)=O)[C@]5(CC)C=CCN6CC[C@]43[C@@H]65)C2)C1 (some centres unmarked) [Compound 19b, 10′-fluorovinblastine] | 0.7 nM | 0.9 nM | 80 nM | about 8 fold | about 8 fold | about 8 fold |  |  |  |  |  | 
2 | CCC1=C[C@@H]2CN(CCc3c([nH]c4ccc(F)cc34)[C@@](C(=O)OC)(c3cc4c(cc3OC)N(C)C3C(O)(C(=O)OC)[C@H](OC(C)=O)[C@]5(CC)C=CCN6CC[C@]43[C@@H]65)C2)C1 (some centres unmarked) [Compound 19a, 10′-fluoroanhydrovinblastine] |  |  |  |  | about 8 fold |  | 30 nM | 50 nM | 290 nM |  |  | 
3 | CC[C@]1(O)C[C@@H]2CN(CCc3c([nH]c4ccc(F)cc34)[C@@](C(=O)OC)(c3cc4c(cc3OC)N(C=O)C3C(O)(C(=O)OC)[C@H](OC(C)=O)[C@]5(CC)C=CCN6CC[C@]43[C@@H]65)C2)C1 (some centres unmarked) [Compound 28, 10′-fluorovincristine] |  |  |  |  |  | about 8 fold |  |  |  | 0.7 nM | 1 nM | 90 nM
4 | CC[C@]1(O)C[C@@H]2CN(CCc3c([nH]c4ccc(SC)cc34)[C@@](C(=O)OC)(c3cc4c(cc3OC)N(C)C3C(O)(C(=O)OC)[C@H](OC(C)=O)[C@]5(CC)C=CCN6CC[C@]43[C@@H]65)C2)C1 (some centres unmarked) [Compound 20b, 10′-thiomethylvinblastine] | 45 nM | 35 nM | 740 nM |  |  |  |  |  |  |  |  | 
